Measurements taken from ChEMBL document CHEMBL6078680, “Improving the Stability and Anti-Infective Activity of Sea Turtle AMPs Using Multiple Structural Modification Strategies” (J Med Chem, 2024).
Activity calls are given as the source filed them. No cut-off for these calls is given here.

Columns and labels:
Enterococcus faecium = assay: Antimicrobial activity against Enterococcus faecium 34 assessed as reduction in microbial growth incubated for 18 hrs by broth microdilution method; format: functional
Escherichia coli [1] = assay: Antimicrobial activity against Escherichia coli CMCC44102 assessed as reduction in microbial growth incubated for 18 hrs by broth microdilution method; format: functional
Pseudomonas aeruginosa = assay: Antimicrobial activity against Pseudomonas aeruginosa CMCC10104 assessed as reduction in microbial growth incubated for 18 hrs by broth microdilution method; format: functional
Staphylococcus aureus [2] = assay: Antimicrobial activity against Staphylococcus aureus CMCC 26003 assessed as reduction in microbial growth incubated for 18 hrs by broth microdilution method; format: functional
Clostridium perfringens = assay: Antimicrobial activity against Clostridium perfringens ATCC 13124 assessed as reduction in microbial growth incubated for 18 hrs by broth microdilution method; format: functional
Staphylococcus aureus [3] = assay: Antimicrobial activity against Staphylococcus aureus ATCC 43300 assessed as reduction in microbial growth incubated for 18 hrs by broth microdilution method; format: functional
Enterococcus faecalis = assay: Antimicrobial activity against Enterococcus faecalis ATCC 29217 assessed as reduction in microbial growth incubated for 18 hrs by broth microdilution method; format: functional
[4] = test system: Staphylococcus epidermidis; assay: Antimicrobial activity against Staphylococcus epidermidis assessed as reduction in microbial growth incubated for 18 hrs by broth microdilution method; format: functional
Staphylococcus aureus [5] = assay: Antimicrobial activity against Staphylococcus aureus 08032706 assessed as reduction in microbial growth incubated for 18 hrs by broth microdilution method; format: functional
Peritoneal macrophage [6] = assay: Antiinflammatory activity in mouse Peritoneal macrophage cells assessed as inhibition of LPS-induced TNF-alpha production at 20 microg/ml incubated for 6 hrs by ELISA analysis; format: functional, cell-based; conditions: dose 20.0 µg/ml
Peritoneal macrophage [7] = assay: Antiinflammatory activity in mouse Peritoneal macrophage cells assessed as inhibition of LPS-induced IL-6 production at 20 microg/ml incubated for 6 hrs by ELISA analysis; format: functional, cell-based; conditions: dose 20.0 µg/ml
Acinetobacter baumannii [8] = assay: Drug resistance, ratio of MIC for Acinetobacter baumannii ATCC1960 after 40 passages to MIC for Acinetobacter baumannii ATCC1960 during first exposure; format: functional
Escherichia coli [9] = assay: Drug resistance, ratio of MIC for Escherichia coli ATCC 25922 after 40 passages to MIC for Escherichia coli ATCC 25922 during first exposure; format: functional
Staphylococcus aureus [10] = assay: Antibiofilm activity against Staphylococcus aureus CMCC 26003 assessed as inhibition of biofilm formation incubated for 48 hrs by crystal violet staining based analysis; format: functional, organism-based
Acinetobacter baumannii [11] = assay: Antibiofilm activity against Acinetobacter baumannii ATCC 19606 assessed as inhibition of biofilm formation incubated for 48 hrs by crystal violet staining based analysis; format: functional, organism-based
Staphylococcus aureus [12] = assay: Antibiofilm activity against Staphylococcus aureus CMCC 26003 assessed as biofilm eradication incubated for 24 hrs by crystal violet staining based analysis; format: functional, organism-based
Staphylococcus aureus [13] = assay: Antibiofilm activity against Staphylococcus aureus CMCC 26003 assessed as reduction in biofilm formation at 0.5 times MIC incubated for 24 hrs by crystal violet staining based analysis; format: functional; design: scale not given: the % may be the effect or the level left
Staphylococcus aureus [14] = assay: Antibiofilm activity against Staphylococcus aureus CMCC 26003 assessed as biofilm eradication at 8 times MIC incubated for 24 hrs by crystal violet staining based analysis; format: functional
Acinetobacter baumannii [15] = assay: Antipersister-activity against Acinetobacter baumannii ATCC 19606 assessed as elimination of persister cells at 50 times MIC preincubated adherent persistent cells with colistin incubation for 24 hrs; format: functional
Cell membrane [16] = assay: Disruption of cell membrane integrity in Escherichia coli ATCC 25922 assessed as cell membrane damage at 5 times MIC measured after 30 mins by scanning electron microscopic analysis; format: subcellular
Cell membrane [17] = assay: Disruption of cell membrane integrity in Staphylococcus aureus CMCC 26003 assessed as cell membrane damage at 5 times MIC measured after 30 mins by scanning electron microscopic analysis; format: subcellular
Staphylococcus aureus [18] = assay: Antimicrobial activity against Staphylococcus aureus CMCC 26003 assessed as fold increase in MIC incubated for 18 hrs in presence of CCCP; format: functional
Escherichia coli [19] = assay: Antibacterial activity against Escherichia coli ATCC 25922 assessed as increase in intracellular ROS production at 2 to 5 times MIC by DCFH-DA staining based assay; format: functional, organism-based
Staphylococcus aureus [20] = assay: Antibacterial activity against Staphylococcus aureus CMCC 26003 assessed as increase in intracellular ROS production incubated for 1 hr by DCFH-DA staining based assay; format: functional, organism-based
Staphylococcus aureus [21] = assay: Bactericidal activity against Staphylococcus aureus CMCC 26003 assessed as bacterial eradication incubated at 0.5 hrs in presence of thiourea; format: functional, organism-based
[22] = Acute toxicity in BALB/c mouse assessed as mortality at 10 mg/kg, iv measured for 24 hrs; format: organism-based; conditions: in vivo, read-out: Activity
[23] = Acute toxicity in BALB/c mouse assessed as mortality at 15 mg/kg, iv measured for 24 hrs; format: organism-based; conditions: in vivo, read-out: Activity
[24] = Acute toxicity in BALB/c mouse assessed as mortality at 20 mg/kg, iv measured for 24 hrs; format: organism-based; conditions: in vivo, read-out: Activity
[25] = Acute toxicity in BALB/c mouse assessed as mortality at 50 mg/kg, iv measured for 24 hrs; format: organism-based; conditions: in vivo, read-out: Activity
[26] = Acute toxicity in BALB/c mouse assessed as effect on ALT level at 10 mg/kg, iv measured for 24 hrs; format: organism-based; conditions: in vivo
Acinetobacter baumannii [27] = assay: In vivo antibacterial activity against Acinetobacter baumannii ATCC19606 infected in BALB/c mouse assessed as survival at 15 mg/kg, ip administered for 12 hrs and measured on day 7; format: functional; conditions: time 7.0 day
Acinetobacter baumannii [28] = assay: In vivo antibacterial activity against Acinetobacter baumannii ATCC19606 infected in BALB/c mouse assessed as reduction in bacterial load at 15 mg/kg, ip; format: functional, organism-based; conditions: time 3.0 hrs
Acinetobacter baumannii [29] = assay: In vivo antibacterial activity against Acinetobacter baumannii ATCC19606 infected in BALB/c mouse assessed as reduction in bacterial load in liver at 15 mg/kg, ip measured after 3 hrs; format: functional, organism-based
Acinetobacter baumannii [30] = assay: In vivo antibacterial activity against Acinetobacter baumannii ATCC19606 infected in BALB/c mouse assessed as reduction in bacterial load in kidney at 15 mg/kg, ip measured after 3 hrs; format: functional, organism-based
Acinetobacter baumannii [31] = assay: In vivo antibacterial activity against Acinetobacter baumannii ATCC19606 infected in BALB/c mouse assessed as reduction in bacterial load in liver at 15 mg/kg, ip measured after 12 hrs; format: functional, organism-based
Acinetobacter baumannii [32] = assay: In vivo antibacterial activity against Acinetobacter baumannii ATCC19606 infected in BALB/c mouse assessed as reduction in bacterial load in lung at 15 mg/kg, ip measured after 12 hrs; format: functional, organism-based
Acinetobacter baumannii [33] = assay: In vivo antibacterial activity against Acinetobacter baumannii ATCC19606 infected in BALB/c mouse assessed as reduction in bacterial load in kidney at 15 mg/kg, ip measured after 12 hrs; format: functional, organism-based

CC[C@H](C)[C@H](NC(=O)[C@@H](CCCNC(=N)N)NC(=O)[C@H](CO)NC(=O)[C@H](Cc1c[nH]cn1)NC(=O)[C@@H](CCCNC(=N)N)NC(=O)[C@H](CC(C)C)NC(=O)[C@@H](NC(=O)[C@@H](CCCNC(=N)N)NC(=O)CNC(=O)[C@H](CC(C)C)NC(=O)[C@H](CCC(N)=O)NC(=O)[C@@H](CCCCN)NC(=O)[C@@H](CCCNC(=N)N)NC(=O)[C@@H](NC(=O)[C@@H](CCCCN)NC(=O)[C@@H](CCCCN)NC(=O)[C@@H](N)Cc1ccccc1)C(C)C)C(C)C)C(=O)N[C@H](C(=O)N[C@H](C(=O)NCC(=O)NCC(=O)N[C@H](CCCNC(=N)N)C(=O)N[C@@H](CCSC)C(=O)N[C@H](CCCNC(=N)N)C(=O)N[C@@H](Cc1ccccc1)C(=O)O)C(C)C)[C@@H](C)O
MIC (Enterococcus faecium): 75 µg/mL | MIC (Escherichia coli [1]): 18.8 µg/mL | MIC (Pseudomonas aeruginosa): > 100 µg/mL | MIC (Staphylococcus aureus [2]): 75 µg/mL | MIC (Clostridium perfringens): 18.8 µg/mL | MIC (Staphylococcus aureus [3]): > 100 µg/mL | MIC (Enterococcus faecalis): 37.5 µg/mL | MIC [4]: 75 µg/mL | MIC (Staphylococcus aureus [5]): 75 µg/mL | Activity (Peritoneal macrophage [6]): Active | Activity (Peritoneal macrophage [7]): Active | Ratio (Acinetobacter baumannii [8]): 1 | Ratio (Escherichia coli [9]): 1 | Activity (Staphylococcus aureus [10]): Active | Activity (Acinetobacter baumannii [11]): Active | Activity (Staphylococcus aureus [12]): Active | Activity (Staphylococcus aureus [13]): 20% | Activity (Staphylococcus aureus [14]): 50% | Activity (Acinetobacter baumannii [15]): 60% | Activity (Cell membrane [16]): Active | Activity (Cell membrane [17]): Active | fold change (FC) (Staphylococcus aureus [18]): 32 | Activity (Escherichia coli [19]): Active | Activity (Staphylococcus aureus [20]): Dose-dependent-effect | Activity (Staphylococcus aureus [21]): Active | mortality at 24 h [22]: 0% | mortality at 24 h [23]: 0% | mortality at 24 h [24]: 33% | mortality at 24 h [25]: 0% | Activity [26]: Non-toxic | Activity (Acinetobacter baumannii [27]): Active | Activity (Acinetobacter baumannii [28]): Time-dependent-effect | Activity (Acinetobacter baumannii [29]): Active | Activity (Acinetobacter baumannii [30]): Active | Activity (Acinetobacter baumannii [31]): Active | Activity (Acinetobacter baumannii [32]): Active | Activity (Acinetobacter baumannii [33]): Active
